Columns and labels:
[1] = tested on: dermal microvascular endothelial cells; experiment: Galvanotaxis in applied electric field, dermal microvascular endothelial cells; assay type: cell-based, human; conditions: electric field 100 mV/mm
Procedure: (§1) Endothelial cells were seeded at low density in medium within electrostatic chambers for 2-3 hours prior to exposure to an electric field (EF). A roof consisting of a No 1 cover slip was applied and sealed on top of the chamber, as previously described (in Pullar et al (2005) J Cell Sci 118 (Pt 9), 2023-2034; Pullar et al (2006) Mol Biol Cell and Pullar et al (2001) Cell Motil Cytoskeleton 50 (4), 207-217). A direct current EF of 100 mV/mm was applied through agar bridges connecting silver/silver chloride electrodes to the culture medium at either side of the chamber. The chamber was placed on an inverted microscope with temperature controlled at 37° C.
(§2) Time-lapse images were recorded every 10 minutes over 1 hour and analyzed with Improvision software as previously described (Pullar et al (2005) J Cell Sci 118 (Pt 9), 2023-2034; Pullar et al (2006) Mol Biol Cell and Pullar et al (2001) Cell Motil Cytoskeleton 50 (4), 207-217). […] Therefore, the average of directedness values of a population of cells gives an objective quantification of how, directionally, cells have moved within the electric field. […] Migration rate was analyzed with the following two parameters, ie trajectory speed (μm/min) is the total length of the migration trajectory of a cell divided by the given period of time (ie 60 minutes).

[2] = tested on: aortic macrovascular endothelial cells; experiment: Galvanotaxis in applied electric field, aortic macrovascular endothelial cells; assay type: cell-based, human; conditions: electric field 100 mV/mm
Procedure: as §1, §2

[3] = tested on: chick chorioallantoic membrane (CAM); experiment: Chick chorioallantoic membrane (CAM) assay; assay type: in vivo; conditions: day 8 chick embryos, 48 hours; 10 μM agonist, 10 μM forskolin or 10 nM ICI 118,551; control 15
Procedure: Fertilised chicken eggs were obtained within the first two days of embryonic development, and were cleaned and incubated at 37° C. for 24 hours. On day 3 of development, 1-2 ml of albumin was removed from the apex end of each egg with a sterile needle. A window of 1.5×1.5 cm was created in the shell with a Dremmel tool, and was sealed with clear adhesive tape. […] Images of the exposed vasculature were captured 48 hours later using a Nikon microscope/imaging system. Scale bar=1 mm. Bifurcation points were counted in four fields for the control/treatment groups.

B16-BL6 melanoma cells = experiment: β2-AR/melanoma in-vivo study (B16-BL6 in SKH1 mice); conditions: for tumour surface area / tumour average surface area: s.c. pump, ICI 118,551 0.75 mg/kg/day or salbutamol 3 mg/kg/day, 7 mice per group
Description: Twenty one, 5 week-old female SKH1 mice (immunocompetent, hairless albino strain, Charles River, Wilmington, Mass.) weighing 18 g-25 g were divided into 3 groups of 7 mice.
Melanomas were imaged daily by both transillumination and surface photography at 2× magnification, using an upright Nikon microscope controlled by Pixera software (San Jose, Calif.). Mice were sacrificed after 11 days by CO2 asphyxiation, and the tumor, lungs and the liver were excised and fixed in 10% buffered formalin for 7 days.
All mice were sacrificed by CO2 asphyxiation, 11 days post melanoma cell injection. The tumours were excised from their sub-dermal location, fixed in saline-buffered 10% formalin for 10 days, and then weighed. The average weight of the tumours from each group was calculated and statistically analysed.

endothelial cells = experiment: In vitro model of angiogenesis: tubule formation on Matrigel; assay type: cell-based
Procedure: An experimental in vitro model was employed to observe the effect of β2-AR ligands (ie agonists and antagonists) on endothelial cell vessel formation. […] The endothelial cells plated on the top of the Matrigel were maintained in a 37° C. incubator with 5% CO2 Tubule formation was observed every 4 hours up to 21 hours using an inverted Nikon Diaphot microscope.

MTLn3 cells = experiment: Galvanotaxis in applied electric field, MTLn3 mammary adenocarcinoma cells; assay type: cell-based
[4] = tested on: dermal microvascular endothelial cells; experiment: Scratch (wound healing) assay, dermal microvascular endothelial cells; assay type: cell-based, human; conditions: 10 nM ICI 118,551 or 1 μM salbutamol
Procedure: Endothelial cells were grown to confluence in medium on plastic tissue culture dishes (Fisher Scientific, Pittsburgh, Pa.) coated with 60 μg/ml collagen I (Vitrogen 100, Collagen Corp., Palo Alto, Calif.) in PBS for 1 hour at 37° C. […] Demarcated areas of each wound were photographed on an inverted Nikon Diaphot microscope at the time of wounding (time 0) up to wound healing as described in Pullar et al., (2003) J Biol Chem 278 (25), 22555-22562. Image J was used to measure each demarcated wound area at time 0 and 20 hours post wounding and the results were averaged to calculate the % healing for control and β2-AR ligand-treated cells.

aortic rings = experiment: Rat aortic ring assay (capillary outgrowth); assay type: cell-based; conditions: after 90 hours; 10 nM ICI 118,551 or 1 μM salbutamol; vs untreated
Procedure: A rat aortic ring assay (as described in Nicosia and Ottinetti (1990) Lab Invest 63 (1), 115-122; and Diglio et al (1989) Lab Invest 60 (4), 523-531) was used to study the effect of β2-AR ligands on vessel formation. Rat aorta was obtained from animals that were euthanised under a Home Office Approved Schedule 1 method. The aorta was cut into small rings with sterile scissors and each piece was submerged under a 50 μl bead of Matrigel in the bottom of each in a 24-well dish. […] Vessel growth was observed using an inverted Nikon Diaphot microscope every 30 hours and images were captured as described in Pullar et al (2005) J Cell Sci 118 (Pt 9), 2023-2034; Pullar et al (2006) Mol Biol Cell and Pullar et al (2001) Cell Motil Cytoskeleton 50 (4), 207-217.

[5] = 1 μM salbutamol, control cosine=0.5

SMILES	migration directedness (cosine) [1, 5]	migration directedness (cosine) [2, 5]	number of vessel bifurcation points [3]	tumour surface area (B16-BL6 melanoma cells; after 3 days)	tumour average surface area (B16-BL6 melanoma cells; after 7 days)	surface area of the very large tumour of one mouse (B16-BL6 melanoma cells; after 7 days, single mouse, salbutamol 3 mg/kg/day) [mm^2]	capillary network formed on Matrigel (endothelial cells; by 21 hours, 1 μM salbutamol)	reduction of directional migration (MTLn3 cells)	increase in rate of wound closure [4] [%]	capillary outgrowth from cut edges of aortic rings (aortic rings)	increase in directional migration ([1]; 10 nM ICI 118,551) [%]	increase in directional migration ([2]; 10 nM ICI 118,551) [%]	average weight of tumours (B16-BL6 melanoma cells; 11 days post melanoma cell injection, vs control group)	number of mice without any signs of tumour development (B16-BL6 melanoma cells; after 3 days, of 7 mice, ICI 118,551 0.75 mg/kg/day)	number of mice with no visible signs of tumour development (B16-BL6 melanoma cells; after 7 days and by end of study (11 days), of 7 mice, ICI 118,551 0.75 mg/kg/day)	size of excised tumours (photograph) (B16-BL6 melanoma cells; at eleven days, vs control)	time to highly organized, mature capillary network on Matrigel (endothelial cells; 10 nM ICI 118,551, untreated cells: within 21 hours) [h]	effect on galvanotaxis (MTLn3 cells)
CC(C)(C)NCC(O)c1ccc(O)c(CO)c1 (stereo not drawn) [salbutamol]	0	0	4	4.1+/−1.3 mm^2	10.4+/−2.9 mm^2	24.8	disorganized, immature capillary network	more than 50%	40	significantly increased the length and number of the capillaries								
Cc1ccc(OCC(O)C(C)NC(C)C)c2c1CCC2 (stereo not drawn) [ICI 118,551]			> 50	1.8+/−0.61 mm^2	4.4+/−1.5 mm^2				40	decreased the length of the capillaries	≤ 60	≤ 60	statistically lower than that for the control group	two	one	much smaller than those in the control sample	≤ 12	little effect on galvanotaxis
C=C[C@@]1(C)CC(=O)[C@]2(O)[C@@]3(C)[C@@H](O)CCC(C)(C)[C@@H]3[C@H](O)[C@H](OC(C)=O)[C@@]2(C)O1 [forskolin]			5															

From US20100075969A1, “Angiogenesis” (UNIVERSITY OF LEICESTER, priority 2006, published 2010)
